Data: BigSolDB 2.1

Structure (SMILES): NC(N)=S
- solubility (mole fraction) (in 2-butanone, 283.15 K): 0.0135
- solubility (mole fraction) (in 2-butanone, 288.15 K): 0.0154
- solubility (mole fraction) (in 2-butanone, 293.15 K): 0.0171
- solubility (mole fraction) (in 2-butanone, 298.15 K): 0.0189
- solubility (mole fraction) (in 2-butanone, 303.15 K): 0.0203
- solubility (mole fraction) (in 2-butanone, 308.15 K): 0.0219
- solubility (mole fraction) (in 2-butanone, 313.15 K): 0.0234
- solubility (mole fraction) (in 2-butanone, 318.15 K): 0.0247
- solubility (mole fraction) (in 2-butanone, 323.15 K): 0.0264
- solubility (mole fraction) (in acetone, 283.15 K): 0.0348
- solubility (mole fraction) (in acetone, 288.15 K): 0.0364
- solubility (mole fraction) (in acetone, 293.15 K): 0.0375
- solubility (mole fraction) (in acetone, 298.15 K): 0.0389
- solubility (mole fraction) (in acetone, 303.15 K): 0.0401
- solubility (mole fraction) (in acetone, 308.15 K): 0.042
- solubility (mole fraction) (in acetone, 313.15 K): 0.0438
- solubility (mole fraction) (in acetone, 318.15 K): 0.0465
- solubility (mole fraction) (in acetone, 323.15 K): 0.0482
- solubility (mole fraction) (in acetonitrile, 283.15 K): 0.00865
- solubility (mole fraction) (in acetonitrile, 288.15 K): 0.00982
- solubility (mole fraction) (in acetonitrile, 293.15 K): 0.0107
- solubility (mole fraction) (in acetonitrile, 298.15 K): 0.012
- solubility (mole fraction) (in acetonitrile, 303.15 K): 0.0134
- solubility (mole fraction) (in acetonitrile, 308.15 K): 0.0146
- solubility (mole fraction) (in acetonitrile, 313.15 K): 0.016
- solubility (mole fraction) (in acetonitrile, 318.15 K): 0.018
- solubility (mole fraction) (in acetonitrile, 323.15 K): 0.0196
- solubility (mole fraction) (in ethanol, 283.15 K): 0.0172
- solubility (mole fraction) (in ethanol, 288.15 K): 0.02
- solubility (mole fraction) (in ethanol, 293.15 K): 0.0227
- solubility (mole fraction) (in ethanol, 298.15 K): 0.0254
- solubility (mole fraction) (in ethanol, 303.15 K): 0.0285
- solubility (mole fraction) (in ethanol, 308.15 K): 0.0315
- solubility (mole fraction) (in ethanol, 313.15 K): 0.0353
- solubility (mole fraction) (in ethanol, 318.15 K): 0.0394
- solubility (mole fraction) (in ethanol, 323.15 K): 0.0442
- solubility (mole fraction) (in ethyl acetate, 283.15 K): 0.00497
- solubility (mole fraction) (in ethyl acetate, 288.15 K): 0.00519
- solubility (mole fraction) (in ethyl acetate, 293.15 K): 0.00548
- solubility (mole fraction) (in ethyl acetate, 298.15 K): 0.0058
- solubility (mole fraction) (in ethyl acetate, 303.15 K): 0.0062
- solubility (mole fraction) (in ethyl acetate, 308.15 K): 0.00664
- solubility (mole fraction) (in ethyl acetate, 313.15 K): 0.00718
- solubility (mole fraction) (in ethyl acetate, 318.15 K): 0.00769
- solubility (mole fraction) (in ethyl acetate, 323.15 K): 0.00814
- solubility (mole fraction) (in isobutanol, 283.15 K): 0.00827
- solubility (mole fraction) (in isobutanol, 288.15 K): 0.0101
- solubility (mole fraction) (in isobutanol, 293.15 K): 0.0116
- solubility (mole fraction) (in isobutanol, 298.15 K): 0.0132
- solubility (mole fraction) (in isobutanol, 303.15 K): 0.0152
- solubility (mole fraction) (in isobutanol, 308.15 K): 0.0171
- solubility (mole fraction) (in isobutanol, 313.15 K): 0.0189
- solubility (mole fraction) (in isobutanol, 318.15 K): 0.0224
- solubility (mole fraction) (in isobutanol, 323.15 K): 0.0251
- solubility (mole fraction) (in isopropanol, 283.15 K): 0.0133
- solubility (mole fraction) (in isopropanol, 288.15 K): 0.0151
- solubility (mole fraction) (in isopropanol, 293.15 K): 0.0168
- solubility (mole fraction) (in isopropanol, 298.15 K): 0.019
- solubility (mole fraction) (in isopropanol, 303.15 K): 0.0225
- solubility (mole fraction) (in isopropanol, 308.15 K): 0.0246
- solubility (mole fraction) (in isopropanol, 313.15 K): 0.0273
- solubility (mole fraction) (in isopropanol, 318.15 K): 0.0308
- solubility (mole fraction) (in isopropanol, 323.15 K): 0.0344
- solubility (mole fraction) (in methanol, 283.15 K): 0.0423
- solubility (mole fraction) (in methanol, 288.15 K): 0.0471
- solubility (mole fraction) (in methanol, 293.15 K): 0.0521
- solubility (mole fraction) (in methanol, 298.15 K): 0.0596
- solubility (mole fraction) (in methanol, 303.15 K): 0.0644
- solubility (mole fraction) (in methanol, 308.15 K): 0.07
- solubility (mole fraction) (in methanol, 313.15 K): 0.0761
- solubility (mole fraction) (in methanol, 318.15 K): 0.0848
- solubility (mole fraction) (in methanol, 323.15 K): 0.0944
- solubility (mole fraction) (in methyl acetate, 283.15 K): 0.00556
- solubility (mole fraction) (in methyl acetate, 288.15 K): 0.00628
- solubility (mole fraction) (in methyl acetate, 293.15 K): 0.00673
- solubility (mole fraction) (in methyl acetate, 298.15 K): 0.00747
- solubility (mole fraction) (in methyl acetate, 303.15 K): 0.00814
- solubility (mole fraction) (in methyl acetate, 308.15 K): 0.00885
- solubility (mole fraction) (in methyl acetate, 313.15 K): 0.00951
- solubility (mole fraction) (in methyl acetate, 318.15 K): 0.0102
- solubility (mole fraction) (in methyl acetate, 323.15 K): 0.0109
- solubility (mole fraction) (in n-butanol, 283.15 K): 0.0104
- solubility (mole fraction) (in n-butanol, 288.15 K): 0.0121
- solubility (mole fraction) (in n-butanol, 293.15 K): 0.0133
- solubility (mole fraction) (in n-butanol, 298.15 K): 0.015
- solubility (mole fraction) (in n-butanol, 303.15 K): 0.0173
- solubility (mole fraction) (in n-butanol, 308.15 K): 0.0195
- solubility (mole fraction) (in n-butanol, 313.15 K): 0.0212
- solubility (mole fraction) (in n-butanol, 318.15 K): 0.0238
- solubility (mole fraction) (in n-butanol, 323.15 K): 0.0274
- solubility (mole fraction) (in n-propanol, 283.15 K): 0.0128
- solubility (mole fraction) (in n-propanol, 288.15 K): 0.0143
- solubility (mole fraction) (in n-propanol, 293.15 K): 0.0157
- solubility (mole fraction) (in n-propanol, 298.15 K): 0.0177
- solubility (mole fraction) (in n-propanol, 303.15 K): 0.0209
- solubility (mole fraction) (in n-propanol, 308.15 K): 0.0231
- solubility (mole fraction) (in n-propanol, 313.15 K): 0.0255
- solubility (mole fraction) (in n-propanol, 318.15 K): 0.029
- solubility (mole fraction) (in n-propanol, 323.15 K): 0.0326
- solubility (mole fraction) (in water, 283.15 K): 0.0211
- solubility (mole fraction) (in water, 288.15 K): 0.0265
- solubility (mole fraction) (in water, 293.15 K): 0.0325
- solubility (mole fraction) (in water, 298.15 K): 0.0396
- solubility (mole fraction) (in water, 303.15 K): 0.0493
- solubility (mole fraction) (in water, 308.15 K): 0.0592
- solubility (mole fraction) (in water, 313.15 K): 0.0701
- solubility (mole fraction) (in water, 318.15 K): 0.0835
- solubility (mole fraction) (in water, 323.15 K): 0.102
